The assay has as its target T1, human GPR40 (Homo sapiens, UniProt O14842).
T1 construct: host or cells: CHO-K1
The assay is described as follows: Inositol phosphate accumulation assay (IP1 HTRF) in CHO-K1 cells expressing human GPR40. The class given is cell-based. The following applies: 90 min. As to the method: CHO-K1 cells expressing human GPR40 were purchased from DiscoverX (95-1005C2). HEK293 cells expressing mouse FFAR1 were prepared using a mouse FFAR1 carrying plasmid purchased from OriGene Technologies (MR222997). The cells were transfected using Lipofectamine 2000 using manufacturer instructions and stable cell line was established from a single cell using geneticine selection. Assay ready frozen (ARF) cells were prepared and used throughout the study.
The assay was performed in a 384-well plate format using IP1 assay kit from Cis-Bio. ARF cells expressing FFAR1 (mouse and human) were thawed, washed and then plated in the appropriate medium (F12 based medium for CHO hFFAR1 and DMEM based medium for HEK293 mFFAR1-both were supplemented with 10% FBS and penicillin/streptomycin). 20 μL of 3.5×10^5 cells/mL were plated on a Poly D-Lysine coated 384-well white plate. The cells were then incubated for 16 hr at 37° C./5% CO2. After 16 hr the medium was removed and 15 μL of stimulation buffer containing the test compounds was added to the cells. The plates were then incubated for 90 min at 37° C./5% CO2. 5 μL of detection buffer (prepared as described in the IP-one kit) was added to each well and the plates were incubated at RT for 1 hr.
[…] was measured using ClarioSTAR plate reader, calculating the ratio between emissions at 665 nm and 620 nm (HTRF ratio). HTRF ratio for positive (Max) and negative (Min) controls were used to normalize HTRF data and generate values for % activity. EC50 and Max activity values were determined using a standard 4-parameter fit.

Each structure is given as a SMILES string.

A word on the EC50: it is the concentration giving half of the maximal effect. A higher EC50 goes with a need for much substance.

T1 sequence (O14842 whole entry): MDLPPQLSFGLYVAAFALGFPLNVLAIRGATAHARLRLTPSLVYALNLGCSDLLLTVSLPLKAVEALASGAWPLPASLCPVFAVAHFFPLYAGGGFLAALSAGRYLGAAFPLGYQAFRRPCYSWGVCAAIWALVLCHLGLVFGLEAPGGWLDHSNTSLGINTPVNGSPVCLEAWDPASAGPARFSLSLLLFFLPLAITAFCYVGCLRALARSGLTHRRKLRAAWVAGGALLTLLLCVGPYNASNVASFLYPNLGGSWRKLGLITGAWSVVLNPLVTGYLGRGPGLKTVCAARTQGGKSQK

`COc1cc(-c2ccc(COc3cccc(C(CP(=O)(O)OC)C4CC4)c3)cc2CN(C(C)C)C(C)C)c(F)cn1` (stereo not drawn) [Compound 5, methyl hydrogen (2-cyclopropyl-2-(3-((3-((diisopropylamino)methyl)-4-(5-fluoro-2-methoxypyridin-4-yl)benzyl)oxy)phenyl)ethyl)phosphonate] came in with an EC50 of more than 1000 nM. As to `CCP(=O)(O)CC(c1cccc(OCc2ccc(-c3cc(OC)ncc3F)c(CN(C(C)C)C(C)C)c2)c1)C1CC1` (single isomer, unassigned) [Compound 20, (2-cyclopropyl-2-(3-((3-((diisopropylamino)methyl)-4-(5-fluoro-2-methoxypyridin-4-yl)benzyl)oxy)phenyl)ethyl)(ethyl)phosphinic acid], the EC50 is more than 1000 nM. Then `COc1cc(-c2ccc(COc3cccc(C(C)CP(C)(=O)O)c3)cc2[C@@H](OC)C(C)(C)C)c(F)cn1` (stereo partly drawn) [Compound 34, (2-(3-((4-(5-fluoro-2-methoxypyridin-4-yl)-3-((S)-1-methoxy-2,2-dimethylpropyl)benzyl)oxy)phenyl)propyl)(methyl)phosphinic acid], with not above 50 nM.

In the case of `COc1ccc(F)c(-c2ccc(COc3cccc(C(C)CP(C)(=O)O)c3)cc2[C@@H](OC)C(C)(C)C)c1` (single isomer, unassigned) [Compound 32], the EC50 is not above 50 nM.

As to `COc1cc(-c2ccc(COc3cccc(C(CP(C)(=O)O)C4CC4)c3)cc2CN(C(C)C)C(C)C)c(F)cn1` (single isomer, unassigned) [Compound 12, (2-cyclopropyl-2-(3-((3-((diisopropylamino)methyl)-4-(5-fluoro-2-methoxypyridin-4-yl)benzyl)oxy)phenyl)ethyl)(methyl)phosphinic acid], the EC50 is more than 1000 nM.

For the compound `COc1cc(-c2ccc(COc3cccc(C(CP(C)(=O)O)C4CC4)c3)cc2CN(C(C)C)C(C)C)c(F)cn1` (single isomer, unassigned) [Compound 10, (2-cyclopropyl-2-(3-((3-((diisopropylamino)methyl)-4-(5-fluoro-2-methoxypyridin-4-yl)benzyl)oxy)phenyl)ethyl)(methyl)phosphinic acid], the EC50 was in the range of 50 to 250 nM. Then `COc1cc(-c2ccc(OCc3cccc(C(CP(C)(=O)O)C4CC4)c3)cc2CN(C(C)C)C(C)C)c(F)cn1` (stereo not drawn) [Compound 21, (2-cyclopropyl-2-(3-((3-((diisopropylamino)methyl)-4-(5-fluoro-2-methoxypyridin-4-yl)phenoxy)methyl)phenyl)ethyl)(methyl)phosphinic acid], with 50 to 250 nM; and `COc1ccc(F)c(-c2ccc(COc3cc([C@@H](CP(C)(=O)O)C4CC4)ccn3)cc2[C@@H](OC)C(C)(C)C)c1` [Compound 27, ((S)-2-cyclopropyl-2-(2-((2′-fluoro-5′-methoxy-2-((S)-1-methoxy-2,2-dimethylpropyl)-[1,1′-biphenyl]-4-yl)methoxy)pyridin-4-yl)ethyl)(methyl)phosphinic acid], with not above 50 nM.

Turning to `CO[C@H](c1cc(COc2cccc([C@@H](CP(C)(=O)O)C3CC3)c2)ccc1-c1cc(O)ccc1F)C(C)(C)C` [Compound 26, ((S)-2-cyclopropyl-2-(3-((2′-fluoro-5′-hydroxy-2-((S)-1-methoxy-2,2-dimethylpropyl)-[1,1′-biphenyl]-4-yl)methoxy)phenyl)ethyl)(methyl)phosphinic acid], the EC50 is not above 50 nM. As for `CCC(C[PH](=O)O)c1cccc(OCc2ccc(-c3cc(OC)ncc3F)c(CN(C(C)C)C(C)C)c2)c1` (stereo not drawn) [Compound 23, (2-(3-((3-((diisopropylamino)methyl)-4-(5-fluoro-2-methoxypyridin-4-yl)benzyl)oxy)phenyl)butyl)phosphinic acid], the EC50 is more than 1000 nM. For `COc1ccc(F)c(-c2ccc(COc3cc(C(C)CP(C)(=O)O)ccn3)cc2[C@@H](OC)C(C)(C)C)c1` (single isomer, unassigned) [Compound 40, ((R)-2-(2-((2′-fluoro-5′-methoxy-2-((S)-1-methoxy-2,2-dimethylpropyl)-[1,1′-biphenyl]-4-yl)methoxy)pyridin-4-yl)propyl)(methyl)phosphinic acid or ((S)-2-(2-((2′-fluoro-5′-methoxy-2-((S)-1-methoxy-2,2-dimethylpropyl)-[1,1′-biphenyl]-4-yl)methoxy)pyridin-4-yl)propyl)(methyl)phosphinic acid], the EC50 was not above 50 nM. On to `COc1cc(-c2ccc(COc3cccc([C@H](C4CC4)[C@@](C)(F)C(=O)NS(C)(=O)=O)c3)cc2CN(C(C)C)C(C)C)c(F)cn1` [Compound 4, (2R,3S)-3-cyclopropyl-3-(3-((3-((diisopropylamino)methyl)-4-(5-fluoro-2-methoxypyridin-4-yl)benzyl)oxy)phenyl)-2-fluoro-2-methyl-N-(methylsulfonyl)propanamide], for which the EC50 was not above 50 nM. The value for `COc1cc(-c2ccc(COc3cc(C(C)CP(C)(=O)O)ccn3)cc2[C@@H](OC)C(C)(C)C)c(F)cn1` (single isomer, unassigned) [Compound 37] was not above 50 nM; that for `COc1cc(-c2ccc(COc3cccc(C(CP(C)(=O)O)C4CC4)c3)c(CN(C(C)C)C(C)C)c2)c(F)cn1` (stereo not drawn) [Compound 16, (2-cyclopropyl-2-(3-((2-((diisopropylamino)methyl)-4-(5-fluoro-2-methoxypyridin-4-yl)benzyl)oxy)phenyl)ethyl)(methyl)phosphinic acid] was more than 1000 nM. Compound `COc1cc(-c2ccc(COc3cccc(C[C@@H](C)P(C)(=O)O)c3)cc2[C@@H](OC)C(C)(C)C)c(F)cn1` [Compound 41, ((R)-1-(3-((4-(5-fluoro-2-methoxypyridin-4-yl)-3-((S)-1-methoxy-2,2-dimethylpropyl)benzyl)oxy)phenyl)propan-2-yl)(methyl)phosphinic acid] registered an EC50 not above 50 nM. In the case of `COc1cc(-c2ccc(COc3cc([C@@H](CP(C)(=O)O)C4CC4)ccn3)cc2[C@@H](OC)C(C)(C)C)c(F)cn1` [Compound 28, ((S)-2-cyclopropyl-2-(2-((4-(5-fluoro-2-methoxypyridin-4-yl)-3-((S)-1-methoxy-2,2-dimethylpropyl)benzyl)oxy)pyridin-4-yl)ethyl)(methyl)phosphinic acid], the EC50 was not above 50 nM. Then `COc1cc(-c2ccc(OCc3cccc(C(CP(=O)(O)O)C4CC4)c3)cc2CN(C(C)C)C(C)C)c(F)cn1` (stereo not drawn) [Compound 9, (2-cyclopropyl-2-(3-((3-((diisopropylamino)methyl)-4-(5-fluoro-2-methoxypyridin-4-yl)phenoxy)methyl)phenyl)ethyl)phosphonic acid], with more than 1000 nM; and `CCP(=O)(O)CC(c1cccc(OCc2ccc(-c3cc(OC)ncc3F)c(CN(C(C)C)C(C)C)c2)c1)C1CC1` (single isomer, unassigned) [Compound 17, (2-cyclopropyl-2-(3-((3-((diisopropylamino)methyl)-4-(5-fluoro-2-methoxypyridin-4-yl)benzyl)oxy)phenyl)ethyl)(ethyl)phosphinic acid], with more than 1000 nM; and `COc1cc(-c2ccc(COc3cc(C(C)CP(C)(=O)O)ccn3)cc2CN(C(C)C)C(C)C)c(F)cn1` (single isomer, unassigned) [Compound 39, ((R)-2-(2-((3-((diisopropylamino)methyl)-4-(5-fluoro-2-methoxypyridin-4-yl)benzyl)oxy)pyridin-4-yl)propyl)(methyl)phosphinic acid or ((S)-2-(2-((3-((diisopropylamino)methyl)-4-(5-fluoro-2-methoxypyridin-4-yl)benzyl)oxy)pyridin-4-yl)propyl)(methyl)phosphinic acid], with more than 1000 nM. `COc1cc(-c2ccc(COc3cccc(C(C4CC4)C(C)(C)P(=O)(O)O)c3)cc2CN(C(C)C)C(C)C)c(F)cn1` (stereo not drawn) [Compound 22, (1-cyclopropyl-1-(3-((3-((diisopropylamino)methyl)-4-(5-fluoro-2-methoxypyridin-4-yl)benzyl)oxy)phenyl)-2-methylpropan-2-yl)phosphonic acid]: the EC50 was more than 1000 nM. `COc1cc(-c2ccc(COc3cccc(C(C)CP(C)(=O)O)c3)cc2CN(C(C)C)C(C)C)c(F)cn1` (single isomer, unassigned) [Compound 35, (2-(3-((3-((diisopropylamino)methyl)-4-(5-fluoro-2-methoxypyridin-4-yl)benzyl)oxy)phenyl)propyl)(methyl)phosphinic acid] gave a half-maximal effective concentration (EC50) of 50 to 250 nM. For `COc1ccc(F)c(-c2ccc(COc3cccc(C(C)CP(C)(=O)O)c3)cc2[C@@H](OC)C(C)(C)C)c1` (single isomer, unassigned) [Compound 33], the EC50 is not above 50 nM. `CO[C@H](c1cc(COc2cc([C@@H](CP(C)(=O)O)C3CC3)ccn2)ccc1-c1cc(O)ccc1F)C(C)(C)C` [Compound 31, ((S)-2-cyclopropyl-2-(2-((2′-fluoro-5′-hydroxy-2-((S)-1-methoxy-2,2-dimethylpropyl)-[1,1′-biphenyl]-4-yl)methoxy)pyridin-4-yl)ethyl)(methyl)phosphinic acid] had an EC50 not above 50 nM. Regarding `COc1cc(-c2ccc(COc3cccc(C(CP(=O)(O)O)C4CC4)c3)cc2CN(C(C)C)C(C)C)c(F)cn1` (stereo not drawn) [Compound 8, (2-cyclopropyl-2-(3-((3-((diisopropylamino)methyl)-4-(5-fluoro-2-methoxypyridin-4-yl)benzyl)oxy)phenyl)ethyl)phosphonic acid], the EC50 was more than 1000 nM.

Source of the values: patent publication US20230151037A1, “GPR40 AGONISTS” (Kallyope, Inc., priority 2020, published 2023).
